Measured values reported in article PMC7966384, “In vivo and in vitro reconstitution of unique key steps in cystobactamid antibiotic biosynthesis” (Nature Communications, 2021).

Assays:
CysH = molecular target: T1, CysH (Cystobacter sp. Cbv34, UniProt A0A0H4NUD7); assay: intact protein ESI-MS, loading onto T domain; format: biochemical; settings: 1 mM ATP, 10 mM MgCl2, pH 7.5, room temperature; covalent (T domain thioester); 1 mM amino acid, 5 µM protein
T1 construct: full-length A-T module with 38 kDa AMDH domain inserted; E. coli BL21(DE3), pHisSUMOTEV, N-terminal 6xHis tag, TEV protease treated
T1 sequence (A0A0H4NUD7 entry or part of it): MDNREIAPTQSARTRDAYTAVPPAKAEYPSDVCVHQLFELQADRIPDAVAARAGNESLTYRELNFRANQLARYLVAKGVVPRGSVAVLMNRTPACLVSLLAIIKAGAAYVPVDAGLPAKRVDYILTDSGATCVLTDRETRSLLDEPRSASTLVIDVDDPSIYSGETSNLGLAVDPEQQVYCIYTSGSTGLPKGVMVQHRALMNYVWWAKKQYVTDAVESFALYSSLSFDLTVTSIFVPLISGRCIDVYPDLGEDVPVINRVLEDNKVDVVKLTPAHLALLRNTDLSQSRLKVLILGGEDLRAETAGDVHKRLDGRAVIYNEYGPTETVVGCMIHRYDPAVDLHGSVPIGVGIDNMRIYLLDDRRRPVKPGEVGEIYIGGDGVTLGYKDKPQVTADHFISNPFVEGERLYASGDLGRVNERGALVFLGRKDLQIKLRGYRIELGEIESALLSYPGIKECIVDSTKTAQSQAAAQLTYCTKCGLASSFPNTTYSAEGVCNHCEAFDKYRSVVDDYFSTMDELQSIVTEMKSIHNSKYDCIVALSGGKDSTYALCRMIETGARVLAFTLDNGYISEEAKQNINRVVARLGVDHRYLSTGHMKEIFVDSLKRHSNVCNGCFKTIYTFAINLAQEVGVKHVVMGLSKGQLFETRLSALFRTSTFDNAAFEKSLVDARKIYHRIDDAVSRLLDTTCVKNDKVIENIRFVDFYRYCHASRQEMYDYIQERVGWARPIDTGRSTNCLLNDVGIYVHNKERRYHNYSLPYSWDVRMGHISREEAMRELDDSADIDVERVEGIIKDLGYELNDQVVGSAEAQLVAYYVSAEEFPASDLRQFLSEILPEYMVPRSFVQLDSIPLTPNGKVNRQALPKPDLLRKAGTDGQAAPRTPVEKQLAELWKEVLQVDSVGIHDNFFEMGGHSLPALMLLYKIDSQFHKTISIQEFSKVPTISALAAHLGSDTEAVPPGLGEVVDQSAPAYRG

CysH∆AMDH = molecular target: T2, CysH∆AMDH (Cystobacter sp. Cbv34, UniProt A0A0H4NUD7); assay: intact protein ESI-MS, loading onto T domain; format: biochemical; settings: 1 mM ATP, 10 mM MgCl2, pH 7.5, room temperature; covalent (T domain thioester); 1 mM amino acid, 5 µM protein
T2 construct: E. coli BL21(DE3)
T2 sequence (A0A0H4NUD7 entry or part of it): as above

Structure (SMILES)	intact protein ESI-MS, loading onto T domain (CysH)	intact protein ESI-MS, loading onto T domain (CysH∆AMDH)
NC(=O)[C@@H](N)CC(=O)O [L-isoasparagine]	we also observed loading of L-glutamine, β-cyano-L-alanine, and L-isoasparagine	–
NC(=O)C[C@H](N)C(=O)O [L-asparagine]	L-asparagine was favored as substrate by CysH	Incubation of CysH∆AMDH with L-asparagine only resulted in substrate loading
